Measured values published in patent US9738673B1, “Ferrocene derivative, preparation method and use thereof” (XIAMEN INSTITUTE OF RARE EARTH MATERIALS, priority 2016, dated 2017).

Experiments:
[1] = tested on: human lung cancer cell line A549; test: In vitro anticancer activity MTT assay, A549; assay type: cell-based; conditions: 48 h, A549 cells
Experimental: (§1) Using a wavelength-tunable microplate reader absorbance value (A595) was measured at 595 nm. Inhibitory ratio was calculated with the following formula: […]
(§2) wherein, IC50 values were calculated using the GraphPad Prism 5 software.

[2] = tested on: breast cancer cell line MCF-7; test: In vitro anticancer activity MTT assay, MCF-7; assay type: cell-based, human; conditions: 48 h, MCF-7 cells
Experimental: as §1, §2

[3] = tested on: colorectal cancer cell line HCT-116; test: In vitro anticancer activity MTT assay, HCT116; assay type: cell-based, human; conditions: 48 h, HCT116 cells
Experimental: as §1, §2

SMILES | IC50 [1] [µM] | IC50 [2] [µM] | IC50 [3] [µM]
O=C(OCc1cc(-c2ccccc2)no1)[c-]1cccc1.O=C(OCc1cc(-c2ccccc2)no1)[c-]1cccc1.[Fe+2] [YJP-1] | 252 | 990 | –
Cc1ccc(-c2cc(COC(=O)[c-]3cccc3)on2)cc1.Cc1ccc(-c2cc(COC(=O)[c-]3cccc3)on2)cc1.[Fe+2] [YJP-2] | 198 | 136 | 220
CCc1ccc(-c2cc(COC(=O)[c-]3cccc3)on2)cc1.CCc1ccc(-c2cc(COC(=O)[c-]3cccc3)on2)cc1.[Fe+2] [YJP-3] | – | 86.8 | –
CC(C)(C)c1ccc(-c2cc(COC(=O)[c-]3cccc3)on2)cc1.CC(C)(C)c1ccc(-c2cc(COC(=O)[c-]3cccc3)on2)cc1.[Fe+2] [YJP-4] | 220 | 150 | 2180
Cc1cc(C)c(-c2cc(COC(=O)[c-]3cccc3)on2)c(C)c1.Cc1cc(C)c(-c2cc(COC(=O)[c-]3cccc3)on2)c(C)c1.[Fe+2] [YJP-5] | 189 | 142 | –
COc1ccc(-c2cc(COC(=O)[c-]3cccc3)on2)cc1.COc1ccc(-c2cc(COC(=O)[c-]3cccc3)on2)cc1.[Fe+2] [YJP-6] | – | 182 | –
COc1ccccc1-c1cc(COC(=O)[c-]2cccc2)on1.COc1ccccc1-c1cc(COC(=O)[c-]2cccc2)on1.[Fe+2] [YJP-7] | 868 | 157 | –
COc1cccc(-c2cc(COC(=O)[c-]3cccc3)on2)c1.COc1cccc(-c2cc(COC(=O)[c-]3cccc3)on2)c1.[Fe+2] [YJP-8] | 142 | 138 | 236
O=C(OCc1cc(-c2ccc(C(F)(F)F)cc2)no1)[c-]1cccc1.O=C(OCc1cc(-c2ccc(C(F)(F)F)cc2)no1)[c-]1cccc1.[Fe+2] [YJP-9] | – | 133 | –
O=C(OCc1cc(-c2ccc(F)cc2)no1)[c-]1cccc1.O=C(OCc1cc(-c2ccc(F)cc2)no1)[c-]1cccc1.[Fe+2] [YJP-11] | 2860 | 138 | –

The next lines start with the values.

IC50 [1] [µM] | IC50 [2] [µM] | IC50 [3] [µM] | SMILES
168 | 159 | 149 | O=C(OCc1cc(-c2ccccc2F)no1)[c-]1cccc1.O=C(OCc1cc(-c2ccccc2F)no1)[c-]1cccc1.[Fe+2] [YJP-12]
690 | 169 | 486 | O=C(OCc1cc(-c2ccc(Cl)cc2)no1)[c-]1cccc1.O=C(OCc1cc(-c2ccc(Cl)cc2)no1)[c-]1cccc1.[Fe+2] [YJP-13]
450 | 172 | 228 | O=C(OCc1cc(-c2ccccc2Cl)no1)[c-]1cccc1.O=C(OCc1cc(-c2ccccc2Cl)no1)[c-]1cccc1.[Fe+2] [YJP-14]
222 | 190 | 234 | O=C(OCc1cc(-c2ccc(Cl)cc2Cl)no1)[c-]1cccc1.O=C(OCc1cc(-c2ccc(Cl)cc2Cl)no1)[c-]1cccc1.[Fe+2] [YJP-15]
251 | 156 | 63.9 | O=C(OCc1cc(-c2ccc(Br)cc2)no1)[c-]1cccc1.O=C(OCc1cc(-c2ccc(Br)cc2)no1)[c-]1cccc1.[Fe+2] [YJP-16]
530 | 178 | 157 | O=C(OCc1cc(-c2ccc([N+](=O)[O-])cc2)no1)[c-]1cccc1.O=C(OCc1cc(-c2ccc([N+](=O)[O-])cc2)no1)[c-]1cccc1.[Fe+2] [YJP-19]
